According to the NIST ThermoML archive (doi:10.1021/je060158k):
± gives the expanded uncertainty stated by the source.

Conditions: 100 kPa, Liquid, Capillary tube (Ostwald / Ubbelohde) method

| SMILES | kinematic viscosity (318.15 K) [m2/s] | kinematic viscosity (323.15 K) [m2/s] | kinematic viscosity (328.15 K) [m2/s] | kinematic viscosity (333.15 K) [m2/s] | kinematic viscosity (338.15 K) [m2/s] | kinematic viscosity (343.15 K) [m2/s] | kinematic viscosity (348.15 K) [m2/s] | kinematic viscosity (353.15 K) [m2/s] | kinematic viscosity (363.15 K) [m2/s] | kinematic viscosity (368.15 K) [m2/s] | kinematic viscosity (373.15 K) [m2/s] | kinematic viscosity (383.15 K) [m2/s] | kinematic viscosity (393.15 K) [m2/s] | kinematic viscosity (403.15 K) [m2/s] | kinematic viscosity (413.15 K) [m2/s] | kinematic viscosity (423.15 K) [m2/s] | kinematic viscosity (358.15 K) [m2/s] | further results |
| --- | --- | --- | --- | --- | --- | --- | --- | --- | --- | --- | --- | --- | --- | --- | --- | --- | --- | --- |
| CCCCCCCI [1-iodoheptane] | 8.67e-07 ± 1.9e-08 | 8.12e-07 ± 1.8e-08 | 7.66e-07 ± 1.7e-08 | 7.25e-07 ± 1.6e-08 | 6.87e-07 ± 1.5e-08 | 6.53e-07 ± 1.5e-08 | 6.2e-07 ± 1.4e-08 | 5.91e-07 ± 1.3e-08 | 5.41e-07 ± 1.2e-08 | 5.17e-07 ± 1.2e-08 | 4.98e-07 ± 1.1e-08 | 4.58e-07 ± 1e-08 | 4.24e-07 ± 9.6e-09 | 3.96e-07 ± 8.9e-09 | 3.7e-07 ± 8.4e-09 | 3.46e-07 ± 7.8e-09 | – | kinematic viscosity (296.35 K): 1.18e-06 ± 2.6e-08 m2/s; kinematic viscosity (297.2 K): 1.17e-06 ± 2.6e-08 m2/s; kinematic viscosity (303.5 K): 1.06e-06 ± 2.4e-08 m2/s; kinematic viscosity (313.2 K): 9.24e-07 ± 2.1e-08 m2/s; kinematic viscosity (378.15 K): 4.76e-07 ± 1.1e-08 m2/s |
| CCCCCCCCCCl [1-chlorononane] | 1.21e-06 ± 2.6e-08 | 1.13e-06 ± 2.4e-08 | 1.07e-06 ± 2.3e-08 | 1e-06 ± 2.1e-08 | 9.48e-07 ± 2e-08 | 8.97e-07 ± 1.9e-08 | 8.52e-07 ± 1.8e-08 | 8.09e-07 ± 1.7e-08 | 7.37e-07 ± 1.6e-08 | 7.04e-07 ± 1.5e-08 | 6.73e-07 ± 1.4e-08 | 6.19e-07 ± 1.3e-08 | 5.72e-07 ± 1.2e-08 | 5.31e-07 ± 1.1e-08 | 4.94e-07 ± 1e-08 | – | 7.72e-07 ± 1.6e-08 | kinematic viscosity (296.21 K): 1.68e-06 ± 3.6e-08 m2/s; kinematic viscosity (300.65 K): 1.57e-06 ± 3.3e-08 m2/s; kinematic viscosity (313.15 K): 1.3e-06 ± 2.8e-08 m2/s |
| CCCCCCI [1-iodohexane] | 7.01e-07 ± 1.5e-08 | 6.63e-07 ± 1.4e-08 | 6.26e-07 ± 1.3e-08 | 5.97e-07 ± 1.3e-08 | 5.68e-07 ± 1.2e-08 | 5.39e-07 ± 1.2e-08 | 5.18e-07 ± 1.1e-08 | – | – | 4.37e-07 ± 9.3e-09 | – | 3.91e-07 ± 8.4e-09 | 3.64e-07 ± 7.8e-09 | – | 3.19e-07 ± 6.9e-09 | 3.01e-07 ± 6.5e-09 | 4.74e-07 ± 1e-08 | kinematic viscosity (297.25 K): 9.1e-07 ± 1.9e-08 m2/s; kinematic viscosity (298.15 K): 9.03e-07 ± 1.9e-08 m2/s; kinematic viscosity (298.25 K): 9e-07 ± 1.9e-08 m2/s; kinematic viscosity (300.25 K): 8.74e-07 ± 1.9e-08 m2/s; kinematic viscosity (319.15 K): 6.89e-07 ± 1.5e-08 m2/s |
